The record followed here is patent publication US9108983B2, “Pyrrole compounds, a process for their preparation and pharmaceutical compositions containing them” (LES LABORATOIRES SERVIER, priority 2013, dated 2015).

Experiment [1] deals with RS4;11 leukaemia tumour line. Put plainly: In vitro cytotoxicity (Microculture Tetrazolium Assay). Format: cell-based. Particulars: RS4;11 cells, exposed for 48 hours, cell viability, read-out: IC50 (nM) MTT RS4;11. The method, then: The cytotoxicity studies were carried out on the RS4;11 leukaemia tumour line.
The cells are distributed onto microplates and exposed to the test compounds for 48 hours.
The cell viability is then quantified by a colorimetric assay, the Microculture Tetrazolium Assay (Cancer Res., 1987, 47, 939-942).

For a further experiment, the target named is Bcl-2 protein (histag-Bcl-2, UniProtKB P10415) (Homo sapiens (Human), UniProt P10415). Put plainly: Inhibition of Bcl-2 by the fluorescence polarisation technique. Format: binding. Particulars: incubation for 2 hours, read-out: IC50 (nM) Bcl-2 FP. The method, then:
The fluorescence polarisation tests were carried out on microplates (384 wells). The Bcl-2 protein, labelled (histag-Bcl-2 such that Bcl-2 corresponds to the UniProtKB® primary accession number: P10415), at a final concentration of 2.50×10^−8 M, is mixed with a fluorescent peptide (Fluorescein-[…]), at a final concentration of 1.00×10^−8 M in a buffer solution (Hepes 10 mM, NaCl 150 mM, Tween20 0.05%, pH 7.4), in the presence or absence of increasing concentrations of test compounds. After incubation for 2 hours, the fluorescence polarisation is measured.
On the technique in general: Polarisation of emitted light reports the rotation of a fluorescent probe.

Counter-ions that a name gives are not always drawn. Like-named read-outs stand apart in the source and are kept apart here.

Chain of Bcl-2 protein (P10415 whole entry): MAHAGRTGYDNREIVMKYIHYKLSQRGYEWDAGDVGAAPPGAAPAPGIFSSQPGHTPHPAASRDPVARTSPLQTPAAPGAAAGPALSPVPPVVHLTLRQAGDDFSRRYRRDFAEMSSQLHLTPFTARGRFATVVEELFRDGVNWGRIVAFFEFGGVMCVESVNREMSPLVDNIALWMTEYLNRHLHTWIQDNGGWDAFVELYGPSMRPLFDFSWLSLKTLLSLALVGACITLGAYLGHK

Take “5-(5-Fluoro-4-methoxy-2-{[(3S)-3-(morpholin-4-ylmethyl)-3,4-dihydroisoquinolin-2(1H)-yl]carbonyl}phenyl)-N-(4-hydroxyphenyl)-1,2-dimethyl-N-(1-methyl-2,3-dihydro-1H-pyrrolo[2,3-b]pyridin-5-yl)-1H-pyrrole-3-carboxamide hydrochloride [Example 210]”: the IC50 (commonly the point on the concentration scale where inhibition reaches its midpoint) came out at 47.2 nM in experiment [1] and 8.8 nM at Bcl-2 protein.

For `Cc1c(C(=O)N(c2ccc(O)cc2)c2cnn(C3CCOC3)c2)cc(-c2cc(F)ccc2C(=O)N2Cc3ccccc3C[C@H]2CN2CCOCC2)n1C` (single isomer, unassigned) [Example 402, 5-(5-Fluoro-2-{[(3S)-3-(morpholin-4-ylmethyl)-3,4-dihydroisoquinolin-2(1H)-yl]carbonyl}phenyl)-N-(4-hydroxyphenyl)-1,2-dimethyl-N-{1-[(3S or R)-tetrahydrofuran-3-yl]-1H-pyrazol-4-yl}-1H-pyrrole-3-carboxamide hydrochloride], the IC50 in experiment [1] (Homo sapiens, RS4-11, 48 h) is 241 nM; at Bcl-2 protein, 26.1 nM.

As for `Cc1c(C(=O)N(c2ccc(O)cc2)c2cnn(C3CCOC3)c2)cc(-c2cc(F)ccc2C(=O)N2Cc3ccccc3C[C@H]2CN2CCOCC2)n1C` (single isomer, unassigned) [Example 403, 5-(5-Fluoro-2-{[(3S)-3-(morpholin-4-ylmethyl)-3,4-dihydroisoquinolin-2(1H)-yl]carbonyl}phenyl)-N-(4-hydroxyphenyl)-1,2-dimethyl-N-{1-[(3R or S)-tetrahydrofuran-3-yl]-1H-pyrazol-4-yl}-1H-pyrrole-3-carboxamide hydrochloride], the IC50 came out at 289 nM in experiment [1] (hydrochloride) and 24.2 nM at Bcl-2 protein.

Consider `Cc1c(C(=O)N(c2ccc(O)cc2)c2cnn(C)c2)cc(-c2cc(Cl)ccc2C(=O)N2Cc3ccccc3C[C@H]2C)n1C` [Example 1, 5-(5-Chloro-2-{[(3R)-3-methyl-3,4-dihydroisoquinolin-2(1H)-yl]carbonyl}phenyl)-N-(4-hydroxyphenyl)-1,2-dimethyl-N-(1-methyl-1H-pyrazol-4-yl)-1H-pyrrole-3-carboxamide], for which the IC50 in experiment [1] (Homo sapiens, RS4-11, 48 h) amounted to 33.6 nM; on Bcl-2 protein it was 5 nM.

With `Cn1cc(C(=O)N(c2ccccc2)c2ccccc2)cc1-c1ccccc1C(=O)N1Cc2ccccc2C[C@H]1CN` [Example 2, 5-(2-{[(3S)-3-(Aminomethyl)-3,4-dihydroisoquinolin-2(1H)-yl]carbonyl}phenyl)-1-methyl-N,N-diphenyl-1H-pyrrole-3-carboxamide], in experiment [1] (Homo sapiens, RS4-11, 48 h), the IC50 turned out to be 1660 nM.

Take `CN1CCN(C[C@@H]2Cc3ccccc3CN2C(=O)c2ccc(Cl)cc2-c2cc(C(=O)N(c3ccc(O)cc3)c3ccc4[nH]ccc4c3)cn2C)CC1` [Example 3, 5-(5-Chloro-2-{[(3S)-3-[(4-methylpiperazin-1-yl)methyl]-3,4-dihydroisoquinolin-2(1H)-yl]carbonyl}phenyl)-N-(4-hydroxyphenyl)-N-(1H-indol-5-yl)-1-methyl-1H-pyrrole-3-carboxamide]: the IC50 is 94.9 nM in experiment [1] (Homo sapiens, RS4-11, 48 h) and 24.6 nM on Bcl-2 protein.

For `CN1CCN(C[C@@H]2Cc3ccccc3CN2C(=O)c2cc3c(cc2-c2cc(C(=O)N(c4ccc(O)cc4)c4ccc5[nH]ccc5c4)cn2C)OCO3)CC1` [Example 4, N-(4-Hydroxyphenyl)-N-(1H-indol-5-yl)-1-methyl-5-(6-{[(3S)-3-[(4-methylpiperazin-1-yl)methyl]-3,4-dihydroisoquinolin-2(1H)-yl]carbonyl}-1,3-benzodioxol-5-yl)-1H-pyrrole-3-carboxamide], the IC50 in experiment [1] (Homo sapiens, RS4-11, 48 h) turned out to be 231 nM.

In the case of `CC(C)n1cc(C(=O)N(c2ccc(O)cc2)c2ccc3c(ccn3C)c2)cc1-c1cc(Cl)ccc1C(=O)N1Cc2ccccc2C[C@H]1CN1CCN(C)CC1` [Example 8], the IC50 in experiment [1] is 255 nM.

`Cc1c(C(=O)N(c2ccccc2)c2ccc(O)cc2)cc(-c2cc(Cl)ccc2C(=O)N2Cc3ccccc3C[C@H]2COCCN(C)C)n1C` [Example 60, 5-(5-Chloro-2-{[(3S)-3-{[2-(dimethylamino)ethoxy]methyl}-3,4-dihydroisoquinolin-2(1H)-yl]carbonyl}phenyl)-N-(4-hydroxyphenyl)-1,2-dimethyl-N-phenyl-1H-pyrrole-3-carboxamide hydrochloride]: the IC50 in experiment [1] (Homo sapiens, RS4-11, 48 h) is 18.3 nM.

`Cc1c(C(=O)N(c2ccc(O)cc2)c2cnn(C)c2)cc(-c2cc(F)ccc2C(=O)N2Cc3ccccc3C[C@H]2CN2CCOCC2)n1C` [Example 67, 5-(5-Fluoro-2-{[(3S)-3-(morpholin-4-ylmethyl)-3,4-dihydroisoquinolin-2(1H)-yl]carbonyl}phenyl)-N-(4-hydroxyphenyl)-1,2-dimethyl-N-(1-methyl-1H-pyrazol-4-yl)-1H-pyrrole-3-carboxamide hydrochloride]: the IC50 in experiment [1] (Homo sapiens, RS4-11, 48 h) was 98.6 nM.

On to `C[C@@H]1Cc2ccccc2CN1C(=O)c1cc2c(cc1-c1cc(C(=O)N(c3ccc(O)cc3)c3cnn(C)c3)c(CCN3CCOCC3)n1C)OCO2` [Example 81, N-(4-Hydroxyphenyl)-1-methyl-5-(6-{[(3R)-3-methyl-3,4-dihydroisoquinolin-2(1H)-yl]carbonyl}-1,3-benzodioxol-5-yl)-N-(1-methyl-1H-pyrazol-4-yl)-2-[2-(morpholin-4-yl)ethyl]-1H-pyrrole-3-carboxamide hydrochloride], for which the half-maximal inhibitory concentration (IC50) in experiment [1] (Homo sapiens, RS4-11, 48 h) turned out to be 249 nM.

On to `Cc1c(N(C(=O)c2cc(-c3cc(Cl)ccc3C(=O)N3Cc4ccccc4C[C@H]3CN3CCOCC3)n(C)c2C)c2ccc(O)cc2)cc(C#N)n1C` [Example 386, 5-(5-Chloro-2-{[(3S)-3-(morpholin-4-ylmethyl)-3,4-dihydroisoquinolin-2(1H)-yl]carbonyl}phenyl)-N-(5-cyano-1,2-dimethyl-1H-pyrrol-3-yl)-N-(4-hydroxyphenyl)-1,2-dimethyl-1H-pyrrole-3-carboxamide hydrochloride], for which the IC50 in experiment [1] (Homo sapiens) was found to be 9.23 nM.

Consider `Cl.[2H]C([2H])([2H])n1cc(N(C(=O)c2cc(-c3cc(F)ccc3C(=O)N3Cc4ccccc4C[C@H]3CN3CCOCC3)n(C)c2C)c2ccc(O)cc2)cn1` [Example 420, 5-(5-Fluoro-2-{[(3S)-3-(morpholin-4-ylmethyl)-3,4-dihydroisoquinolin-2(1H)-yl]carbonyl}phenyl)-N-(4-hydroxyphenyl)-1,2-dimethyl-N-[1-(trideuteriomethyl)-1H-pyrazol-4-yl]-1H-pyrrole-3-carboxamide hydrochloride], for which the IC50 in experiment [1] (Homo sapiens, RS4-11, 48 h) turned out to be 51.8 nM.

For `Cc1c(C(=O)N(c2ccccc2)c2cnc3c(ccn3C)c2)cc(-c2cc(F)c(O)cc2C(=O)N2Cc3ccccc3C[C@H]2CN2CCOCC2)n1C` [Example 443, 5-(5-Fluoro-4-hydroxy-2-{[(3S)-3-(morpholin-4-ylmethyl)-3,4-dihydroisoquinolin-2(1H)-yl]carbonyl}phenyl)-1,2-dimethyl-N-(1-methyl-1H-pyrrolo[2,3-b]pyridin-5-yl)-N-phenyl-1H-pyrrole-3-carboxamide], the IC50 in experiment [1] (Homo sapiens, RS4-11, 48 h) is 57.9 nM.

For the molecule `Cl.[2H]C([2H])([2H])n1c(C#N)cc(N(C(=O)c2cc(-c3cc(Cl)ccc3C(=O)N3Cc4ccccc4C[C@H]3CN3CCOCC3)n(C)c2C)c2ccc(O)cc2)c1C` [Example 449, 5-(5-Chloro-2-{[(3S)-3-(morpholin-4-ylmethyl)-3,4-dihydroisoquinolin-2(1H)-yl]carbonyl}phenyl)-N-[5-cyano-2-methyl-1-(trideuteriomethyl)-1H-pyrrol-3-yl]-N-(4-hydroxyphenyl)-1,2-dimethyl-1H-pyrrole-3-carboxamide hydrochloride], in experiment [1] (Homo sapiens), the IC50 turned out to be 11.9 nM.

Consider `COc1ccc(N(C(=O)c2cc(-c3cc(Cl)ccc3C(=O)N3Cc4ccccc4C[C@H]3CN3CCOCC3)n(C)c2C)c2ccc(O)cc2)nc1C#N` [Example 457, 5-(5-Chloro-2-{[(3S)-3-(morpholin-4-ylmethyl)-3,4-dihydroisoquinolin-2(1H)-yl]carbonyl}phenyl)-N-(6-cyano-5-methoxypyridin-2-yl)-N-(4-hydroxyphenyl)-1,2-dimethyl-1H-pyrrole-3-carboxamide hydrochloride], for which the IC50 in experiment [1] (Homo sapiens, RS4-11, 48 h) was 80.4 nM.

Take `CCOc1ncc(N(C(=O)c2cc(-c3cc(F)ccc3C(=O)N3Cc4ccccc4C[C@H]3CN3CCOCC3)n(C)c2C)c2ccc(O)cc2)cn1` [Example 463, N-(2-Ethoxypyrimidin-5-yl)-5-(5-fluoro-2-{[(3S)-3-(morpholin-4-ylmethyl)-3,4-dihydroisoquinolin-2(1H)-yl]carbonyl}phenyl)-N-(4-hydroxyphenyl)-1,2-dimethyl-1H-pyrrole-3-carboxamide]: the IC50 in experiment [1] (Homo sapiens, RS4-11, 48 h) is 40.8 nM.

In the case of `Cc1c(N(C(=O)c2cc(-c3ccc(Cl)cc3C(=O)N3Cc4ccccc4C[C@H]3CN3CCOCC3)n(C)c2C)c2ccc(O)cc2)cc(C#N)n1C` [Example 465, 5-(4-Chloro-2-{[(3S)-3-(morpholin-4-ylmethyl)-3,4-dihydroisoquinolin-2(1H)-yl]carbonyl}phenyl)-N-(5-cyano-1,2-dimethyl-1H-pyrrol-3-yl)-N-(4-hydroxyphenyl)-1,2-dimethyl-1H-pyrrole-3-carboxamide hydrochloride], the IC50 in experiment [1] (Homo sapiens, RS4-11, 48 h) stood at 50.6 nM.

As for `Cc1c(C(=O)N(c2ccc(O)cc2)c2cnn(C)c2)cc(-c2ccc(Cl)cc2C(=O)N2Cc3ccccc3C[C@H]2CN2CCOCC2)n1C` [Example 466, 5-(4-Chloro-2-{[(3S)-3-(morpholin-4-ylmethyl)-3,4-dihydroisoquinolin-2(1H)-yl]carbonyl}phenyl)-N-(4-hydroxyphenyl)-1,2-dimethyl-N-(1-methyl-1H-pyrazol-4-yl)-1H-pyrrole-3-carboxamide hydrochloride], in experiment [1] (Homo sapiens, RS4-11, 48 h), the IC50 worked out at 493 nM.
